Experimental data reported in PubChem BioAssay AID2060897 (Molecular Pharmacology Branch, DTP, NCI, 2025).

Test system: 966289-007-R4-J1-PDC complex spheroid viability
Experiment: Anticancer human tumor 966289-007-R4-J1-PDC patient-derived pancreatic adenocarcinoma cell line growth inhibition [RAS]
Settings: for IC50: curve of first compound; for viability, T/C: stronger effect = lower value
Procedure, shortened: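 Multi-cell-type spheroids: tumor cells plus HUVEC endothelial cells and mesenchymal stem cells. RAS-pathway inhibitors were combined with targeted agents, each dosed in half-log steps down from clinical Cmax, or from 10 microM when Cmax was unknown.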

[1] = second compound 0.00316 µM, first compound 0.0316 µM
[2] = second compound 0.00316 µM, first compound 0.1 µM
[3] = second compound 0.00316 µM, first compound 0.316 µM
[4] = second compound 0.00316 µM, first compound 1 µM
[5] = second compound 0.01 µM, first compound 0.0316 µM
[6] = second compound 0.01 µM, first compound 0.1 µM
[7] = second compound 0.01 µM, first compound 0.316 µM
[8] = second compound 0.01 µM, first compound 1 µM
[9] = second compound 0.0316 µM, first compound 0.0316 µM
[10] = second compound 0.0316 µM, first compound 0.1 µM
[11] = second compound 0.0316 µM, first compound 0.316 µM
[12] = second compound 0.0316 µM, first compound 1 µM
[13] = second compound 0.1 µM, first compound 0.0316 µM
[14] = second compound 0.1 µM, first compound 0.1 µM
[15] = second compound 0.1 µM, first compound 0.316 µM
[16] = second compound 0.1 µM, first compound 1 µM
[17] = second compound 0.316 µM, first compound 0.0316 µM
[18] = second compound 0.316 µM, first compound 0.1 µM
[19] = second compound 0.316 µM, first compound 0.316 µM
[20] = second compound 0.316 µM, first compound 1 µM
[21] = second compound 1 µM, first compound 0.0316 µM
[22] = second compound 1 µM, first compound 0.1 µM
[23] = second compound 1 µM, first compound 0.316 µM
[24] = second compound 1 µM, first compound 1 µM
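Also: spheroids exposed to agents for one week before readout.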
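For viability, T/C in this document: percent viability relative to DMSO vehicle control wells as 100%.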

Work on `CCc1c2c(nc3ccc(O)cc13)-c1cc3c(c(=O)n1C2)COC(=O)[C@]3(O)CC` + C=CC(=O)N1CCN(c2nc(OCC3CCCN3C)nc3c(F)c(-c4nc(N)cc(C)c4C(F)(F)F)c(Cl)cc23)C(C)C1 yielded an IC50 (second compound 0.00316 µM) of 1.5 nM, an IC50 (second compound 0.01 µM) of 1.38 nM and an IC50 (second compound 0.0316 µM) of 1.34 nM. It also gave an IC50 (second compound 0.1 µM) of 1.22 nM, an IC50 (second compound 0.316 µM) of 1.31 nM and an IC50 (second compound 1 µM) of 1.12 nM. The viability, T/C (second compound 0.00316 µM, first compound 0.000949 µM) was 82%, the viability, T/C (second compound 0.00316 µM, first compound 0.003 µM) was 1.8% and the viability, T/C (second compound 0.00316 µM, first compound 0.00949 µM) was 0.98%. The viability, T/C (second compound 0.00316 µM, first compound 0.03 µM) was 0.95%, the viability, T/C (second compound 0.00316 µM, first compound 0.0949 µM) was 0.87% and the viability, T/C (second compound 0.00316 µM, first compound 0.3 µM) was 0.85%. The viability, T/C (second compound 0.01 µM, first compound 0.000949 µM) was 72.8%, the viability, T/C (second compound 0.01 µM, first compound 0.003 µM) was 2.38% and the viability, T/C (second compound 0.01 µM, first compound 0.00949 µM) was 0.97%. The viability, T/C (second compound 0.01 µM, first compound 0.03 µM) was 1.12%, the viability, T/C (second compound 0.01 µM, first compound 0.0949 µM) was 0.92% and the viability, T/C (second compound 0.01 µM, first compound 0.3 µM) was 0.91%. For the same molecule, the viability, T/C (second compound 0.0316 µM, first compound 0.000949 µM) was 70.5%, the viability, T/C (second compound 0.0316 µM, first compound 0.003 µM) was 2.51% and the viability, T/C (second compound 0.0316 µM, first compound 0.00949 µM) was 1.14%. It also gave a viability, T/C (second compound 0.0316 µM, first compound 0.03 µM) of 0.91%, a viability, T/C (second compound 0.0316 µM, first compound 0.0949 µM) of 0.87% and a viability, T/C (second compound 0.0316 µM, first compound 0.3 µM) of 0.86%. It also gave a viability, T/C (second compound 0.1 µM, first compound 0.000949 µM) of 63.4%, a viability, T/C (second compound 0.1 µM, first compound 0.003 µM) of 2.05% and a viability, T/C (second compound 0.1 µM, first compound 0.00949 µM) of 1.09%. The viability, T/C (second compound 0.1 µM, first compound 0.03 µM) was 0.89%, the viability, T/C (second compound 0.1 µM, first compound 0.0949 µM) was 0.99% and the viability, T/C (second compound 0.1 µM, first compound 0.3 µM) was 0.86%. It also gave a viability, T/C (second compound 0.316 µM, first compound 0.000949 µM) of 68.3%, a viability, T/C (second compound 0.316 µM, first compound 0.003 µM) of 2.24% and a viability, T/C (second compound 0.316 µM, first compound 0.00949 µM) of 1.14%. It also gave a viability, T/C (second compound 0.316 µM, first compound 0.03 µM) of 1.03%, a viability, T/C (second compound 0.316 µM, first compound 0.0949 µM) of 0.87% and a viability, T/C (second compound 0.316 µM, first compound 0.3 µM) of 1.11%. It also gave a viability, T/C (second compound 1 µM, first compound 0.000949 µM) of 58.1%, a viability, T/C (second compound 1 µM, first compound 0.003 µM) of 1.43% and a viability, T/C (second compound 1 µM, first compound 0.00949 µM) of 1.03%. The viability, T/C (second compound 1 µM, first compound 0.03 µM) was 0.98%, the viability, T/C (second compound 1 µM, first compound 0.0949 µM) was 0.91% and the viability, T/C (second compound 1 µM, first compound 0.3 µM) was 0.97%.

Molecule `Cc1nc(N2CCC3(CC2)COC(C)C3N)c(CO)nc1Sc1ccnc(N)c1Cl` (stereo unspecified) + C=CC(=O)N1CCN(c2nc(OCC3CCCN3C)nc3c(F)c(-c4nc(N)cc(C)c4C(F)(F)F)c(Cl)cc23)C(C)C1 has an IC50 (second compound 0.00316 µM) greater than 10000 nM, an IC50 (second compound 0.01 µM) greater than 10000 nM and an IC50 (second compound 0.0316 µM) greater than 10000 nM. It also gave an IC50 (second compound 0.1 µM) greater than 10000 nM, an IC50 (second compound 0.316 µM) greater than 10000 nM and an IC50 (second compound 1 µM) greater than 10000 nM. The viability, T/C [1] was 100%, the viability, T/C [2] was 90.2% and the viability, T/C [3] was 121%. The viability, T/C [4] was 105%, the viability, T/C (second compound 0.00316 µM, first compound 3.16 µM) was 106% and the viability, T/C (second compound 0.00316 µM, first compound 10 µM) was 80%. It also gave a viability, T/C [5] of 109%, a viability, T/C [6] of 89.6% and a viability, T/C [7] of 109%. For the same molecule, the viability, T/C [8] was 94.6%, the viability, T/C (second compound 0.01 µM, first compound 3.16 µM) was 100% and the viability, T/C (second compound 0.01 µM, first compound 10 µM) was 98.6%. For the same molecule, the viability, T/C [9] was 106%, the viability, T/C [10] was 97.9% and the viability, T/C [11] was 110%. The viability, T/C [12] was 105%, the viability, T/C (second compound 0.0316 µM, first compound 3.16 µM) was 108% and the viability, T/C (second compound 0.0316 µM, first compound 10 µM) was 84.7%. It also gave a viability, T/C [13] of 91.1%, a viability, T/C [14] of 107% and a viability, T/C [15] of 107%. For the same molecule, the viability, T/C [16] was 99.9%, the viability, T/C (second compound 0.1 µM, first compound 3.16 µM) was 101% and the viability, T/C (second compound 0.1 µM, first compound 10 µM) was 81.6%. It also gave a viability, T/C [17] of 111%, a viability, T/C [18] of 102% and a viability, T/C [19] of 123%. It also gave a viability, T/C [20] of 114%, a viability, T/C (second compound 0.316 µM, first compound 3.16 µM) of 97.8% and a viability, T/C (second compound 0.316 µM, first compound 10 µM) of 101%. The viability, T/C [21] was 91.3%, the viability, T/C [22] was 98.1% and the viability, T/C [23] was 112%. The viability, T/C [24] was 107%, the viability, T/C (second compound 1 µM, first compound 3.16 µM) was 104% and the viability, T/C (second compound 1 µM, first compound 10 µM) was 97.1%.

For `C=CC(=O)Nc1cc(Nc2nccc(-c3cn(C)c4ccccc34)n2)c(OC)cc1N(C)CCN(C)C` + C=CC(=O)N1CCN(c2nc(OCC3CCCN3C)nc3c(F)c(-c4nc(N)cc(C)c4C(F)(F)F)c(Cl)cc23)C(C)C1, the IC50 (second compound 0.00316 µM) was greater than 1000 nM, the IC50 (second compound 0.01 µM) was greater than 1000 nM and the IC50 (second compound 0.0316 µM) was greater than 1000 nM. The IC50 (second compound 0.1 µM) was greater than 1000 nM, the IC50 (second compound 0.316 µM) was greater than 1000 nM and the IC50 (second compound 1 µM) was greater than 1000 nM. It also gave a viability, T/C (second compound 0.00316 µM, first compound 0.00316 µM) of 102%, a viability, T/C (second compound 0.00316 µM, first compound 0.01 µM) of 105% and a viability, T/C [1] of 101%. For the same molecule, the viability, T/C [2] was 104%, the viability, T/C [3] was 104% and the viability, T/C [4] was 71.7%. The viability, T/C (second compound 0.01 µM, first compound 0.00316 µM) was 95.6%, the viability, T/C (second compound 0.01 µM, first compound 0.01 µM) was 100% and the viability, T/C [5] was 85.5%. The viability, T/C [6] was 97.7%, the viability, T/C [7] was 97.9% and the viability, T/C [8] was 71.8%. The viability, T/C (second compound 0.0316 µM, first compound 0.00316 µM) was 105%, the viability, T/C (second compound 0.0316 µM, first compound 0.01 µM) was 102% and the viability, T/C [9] was 97.9%. It also gave a viability, T/C [10] of 98.7%, a viability, T/C [11] of 97.3% and a viability, T/C [12] of 78.8%. The viability, T/C (second compound 0.1 µM, first compound 0.00316 µM) was 117%, the viability, T/C (second compound 0.1 µM, first compound 0.01 µM) was 103% and the viability, T/C [13] was 101%. The viability, T/C [14] was 97.4%, the viability, T/C [15] was 85.4% and the viability, T/C [16] was 83.9%. It also gave a viability, T/C (second compound 0.316 µM, first compound 0.00316 µM) of 104%, a viability, T/C (second compound 0.316 µM, first compound 0.01 µM) of 112% and a viability, T/C [17] of 118%. It also gave a viability, T/C [18] of 98.5%, a viability, T/C [19] of 84.6% and a viability, T/C [20] of 78.9%. For the same molecule, the viability, T/C (second compound 1 µM, first compound 0.00316 µM) was 102%, the viability, T/C (second compound 1 µM, first compound 0.01 µM) was 95.5% and the viability, T/C [21] was 95.3%. For the same molecule, the viability, T/C [22] was 100%, the viability, T/C [23] was 96% and the viability, T/C [24] was 67.6%.
